Results published in patent US20040147595A1, “Biofilm degrading or sloughing compositions and methods” (priority 2001, published 2004).
Entries after “also recorded” stand apart in the source; their conditions may differ. Where two headings read alike, the source gives them in different places.

What was measured:
Assay type in all cases: cell-based, Pseudomonas aeruginosa
[1] = test system: chitinase; assay: Virulence factor production: chitinase activity of PAO-JP2 supernatant; details: PAO-JP2, 70 nm OdDHL plus 3 μg/ml and 5 μg/ml furanone 56
Protocol: The chitinase activity assay was performed as described by the assay manufacturer (Loewe Biochemica, Sauerlach, Germany). Supernatant (560 μl) of cultures prepared as described for the elastase assay was mixed with carboxymethyl-chitin-remazol brilliant violet (200 μl) and sodium phosphate buffer (40 μl, 1 M, pH 7.5). The reaction mixture was incubated for 18 h at 40° C. in a waterbath. The reaction was stopped by addition of HCl (200 μl, 2 N) and kept for 15 min on ice. After centrifugation (10 min at 15000 rpm), the absorbance (OD550 nm) of the supernatant was measured. The relative chitinase activity was calculated as OD550 nm/OD600 nm normalized to 1 ml supernatant.

[2] = test system: las quorum sensing system (lasB-gfp(ASV) expression); assay: PlasB-gfp(ASV) reporter in planktonic wild type P. aeruginosa PAO1; details: for reduction in lasB(ASV) expression: wild type P. aeruginosa
Protocol: (§1) AHL and furanone bioassay. Strains were grown exponentially in LB or ABt medium supplemented with 0.5% glucose at 30° C., shading at 250 rpm. At an optical density of approximately 0.8. the cultures were diluted and split into subcultures in glass culture flasks. AHLs and furanone 56 were added to appropriate concentrations and the cultures were further incubated at 30° C. under vigorous shaking. Culture samples were retrieved at various time intervals and green fluorescence was measured with a fluorometer (model RF-1501, Shimadzu, Tokyo, Japan) set at an excitation wavelength of 475 nm and emission wavelength of 515 nm. Relative fluorescence was calculated as green fluorescence normalized to 1 ml culture divided by the optical density (OD600 nm.
The PlasB-gfp(ASV) reporter was inserted into the chromosome of wild type P. aeruginosa. […] The quorum size for lasB-gfp(ASV) induction corresponded to a cell density slightly above […] of 1.0, which is in agreement with other reports (Brumilk & Storey, 1992).

[3] = test system: V. fisheri lux quorum sensing system (LuxR); assay: V. fisheri luxR PluxI-gfp(ASV) reporter in PAO-JP2 biofilm
Protocol: P. aeruginosa biofilms. Biofilms were grown at 30° C. in three-dimensional flow cells (Christensen et al., 1999) with individual channel dimensions of 0.3×4×40 mm supplied With ABt minimal medium supplemented with 2% LB. The flow system was assembled and prepared as described by Christensen et al. (1999). The substratum consisted of a microscope glass coverslip (Knittel 24×50 mm st1, Knittel Glaser, Braunschweig, Germany). Cultures for inoculation of the flow channels were prepared in the following way: P. aeruginosa strains were streaked on LB plates with the appropriate antibiotics and incubated for 24 h at 37° C. From each plate a single colony was used for inoculation of 10 ml ABt with 10% LB. The cultures were grown at, 30° C. for 18 h before they were diluted to an OD600 nm of 0.1 in sterile 0.9% NaCl and used for inoculation of the flow channels. Medium flow was kept at a constant rate of 3 mL/h, equivalent to a mean flow velocity of 0.7 mm/s, using a Watson-Marlow 205S peristaltic pump (Watson-Marlow, Falmouth, England). Biofilms were grown for 24 hours before being shifted to media containing AHL and furanone.
Scanning confocal laser microscopy (SCLM). Microscopic inspection and image acquisition were performed an a scanning confocal laser microscope (model TCS4D, Leica Lasertechnik GmbH, Heldelberg, Germany) equipped with a 63×/1.32-0.6 oil objective. The microscope was equipped with a motorized and programmable xy-stage, which was used for monitoring single colonies during the biofilm experiments. At the beginning of each online experiment, the microscope was programmed to track single randomly selected microcolonies; the sensitivity of photo multipliers and the laser intensity were adjusted and thereafter kept constant through out the duration of the experiments. Image scanning was carried out using the 488 nm and 568 nm lines of an Ar/Kr laser for detection of Gfp and Rfp, respectively. Visualization of captured images was performed using the IMARIS software package (Bitplane AG, Zúrich, Switzerland) running on a Silicon Graphics Indigo 2 workstation (Silicon Graphics, Mountain View, Calif. USA).
Repression of LuxR-activated quorum sensing controlled gene transcription. We speculated that the AHL-antagonstic properties of furanone 56 was specific to the P. aeruginosa las quorum sensing system. To test this, a previously published quorum sensing reporter based on the Vibro fisherf luxR gene and Pluxl-gfp(ASV) (Anderson at al, 2001; Wu et al, 2000) was transferred to PAO-JP2.

[4] = test system: P. aeruginosa PAO1; assay: Growth (optical density) of P. aeruginosa PAO1
Protocol: as §1
To determine if the furanone compound worked specifically on the las quorum sensor and not indirectly by disruption of primary metabolic functions, we followed growth as optical density of P. aeruginosa PAO1 in the presence of furanone 56. […] Further, we tested whether the furanone affected P. aeruginosa protein synthesis. The wild type P. aeruginosa PAO1 strain containing the consitutive Gfp-expression vector pMH306 was grown in the presence of furanone 56 at concentrations from 0 to 10 μ/ml. Gfp-expression (fluorescence/OD600 nm) was throughout the growth cycle unaffected by the presence of furanone compound (data not shown).

[5] = test system: P. aeruginosa PAO-JP2; assay: Growth of P. aeruginosa PAO-JP2; details: data not shown
[6] = test system: las quorum sensing system (lasB-gfp(ASV) expression); assay: AHL and furanone bioassay, PlasB-gfp(ASV) Plac-lasR reporter in planktonic PAO-JP2
Protocol: as §1
Initially, the lasB-gfp(ASV) translational fusion (OdDHL sensor) was thoroughly characterized with respect to its sensitivity and specificity. A culture of E. coli hosting the pMHLAS monitor plasmid was diluted and spilt into several subcultures which were then supplemented with AHLs at concentrations ranging from 0 to 1000 nM. […] When the pMHLAS based reporter system was hosted by PAO-JP2. the OdDHL concentration required for half-maximal activation of the lasB-gfp(ASV) fusion was 8 nM (data not shown). In single copy on the chromosome of PAO-JP2, the OdDHL concentration on required for half-maximal activation of lasB expression was approximately 250 nM (FIG. 2b). Green fluorescent cells were visible by epifluorescence microscopy at a minimal OdDHL concentration of 50 nM (FIG. 2c).
Noteworthy, the inhibitory effect of furanone 56 was relieved at increased concentrations of OdDHL.

## O=C1C=C/C(=C/Br)O1 [furanone 56]
[1]
  chitinase activity: close to the uninduced level
[2]; 5 μg/ml (28.5 μM) furanone
  reduction in lasB(ASV) expression: 40%
[2]; 10 μg/ml furanone
  reduction in lasB(ASV) expression: 60%
[2]; planktonic cultures of PAO1
  reduction of transcription of the lasB promoter: approximately 2 fold
[3]; 250 nM OHHL and 15 μg/ml furanone 56, 7 hours
  green fluorescence of biofilm: completely disappeared
[3]; 250 nM OHHL and 15 μg/ml furanone 56, six hours
  green fluorescence of biofilm: almost completely disappeared
[3]; 250 nM OHHL and 15 μg/ml furanone 56, two hours
  green fluorescence of biofilm: significantly less green fluorescent; also recorded: decreased significantly
[4]
  concentrations without effect on growth: < 10 µg/mL
[4]; PAO1, concentrations used for this study (up to 10 μg/ml)
  effect on growth: no or only little effect on growth
[4]; listed as furanone
  concentrations without effect on growth: below 10 μg/ml
[5]
  effect on growth rate: no effect on growth rate
[6]; 1.25 μ/ml (7.1 μM) furanone, range of OdDHL concentrations
  effect on lasB-gfp(ASV) expression: inhibited lasB-gfp(ASV) expression at a wide range of OdDHL concentrations
[6]; any of the tested concentrations
  complete inhibition of lasB-gfp(ASV) expression: complete inhibition was not attained at any of the tested concentrations
